Blank lines part the entries; values can stand above or below the compound they belong to.
Legend:
Assay in all cases: KINOMEscan competition binding
Conditions in all cases: compound 10.0 µM
[1] = tested on: FLT3 (human), P36888 [D835Y]
[2] = target: PRKD3 (human) (UniProt O94806)
[3] = target: STK11 (human) (UniProt Q15831)
[4] = tested on: EGFR (human), P00533 [747-751 del / S ins]
[5] = target: CLK3 (human) (UniProt P49761)
[6] = target: JAK3 JH1 catalytic (human) (UniProt P52333)
[7] = target: TYK2 JH2 pseudokinase (human) (UniProt P29597)
[8] = target: CSNK1G3 (human) (UniProt Q9Y6M4)
[9] = target: CSNK1G1 (human) (UniProt Q9HCP0)
[10] = target: RIPK2 (human) (UniProt O43353)
[11] = target: PLK4 (human) (UniProt O00444)
[12] = tested on: EGFR (human), P00533 [G719S]
[13] = target: PRKD1 (human) (UniProt Q15139)
[14] = target: MYLK (human) (UniProt Q15746)
[15] = target: ACVR1 (human) (UniProt Q04771)
[16] = tested on: KIT (human), P10721 [V559D]
[17] = target: GAK (human) (UniProt O14976)
[18] = target: MAPK15 (human) (UniProt Q8TD08)
[19] = target: CAMKK1 (human) (UniProt Q8N5S9)
[20] = target: TNIK (human) (UniProt Q9UKE5)
[21] = target: STK33 (human) (UniProt Q9BYT3)
[22] = target: PDGFRB (human) (UniProt P09619)
[23] = target: RPS6KA4 KD2 (human) (UniProt O75676)
[24] = target: MINK1 (human) (UniProt Q8N4C8)
[25] = tested on: FLT3 (human), P36888 [N841I]
[26] = target: DAPK3 (human) (UniProt O43293)
[27] = target: STK16 (human) (UniProt O75716)
[28] = target: CDK16 (human) (UniProt Q00536)
[29] = target: RPS6KA5 KD2 (human) (UniProt O75582)
[30] = target: MAPK8 (human) (UniProt P45983)
[31] = target: CHUK (human) (UniProt O15111)
[32] = target: NEK2 (human) (UniProt P51955)
[33] = target: RPS6KA2 KD2 (human) (UniProt Q15349)
[34] = target: TAOK3 (human) (UniProt Q9H2K8)
[35] = target: MKNK1 (human) (UniProt Q9BUB5)
[36] = target: AAK1 (human) (UniProt Q2M2I8)
[37] = target: TTK (human) (UniProt P33981)
[38] = target: CSNK2A1 (human) (UniProt P68400)
[39] = tested on: FLT3 (human), P36888 [K663Q]
[40] = target: ACVR2B (human) (UniProt Q13705)
[41] = target: ULK2 (human) (UniProt Q8IYT8)
[42] = target: MYLK4 (human) (UniProt Q86YV6)

PDGFRB (human), sequence (P09619 whole entry, looked up): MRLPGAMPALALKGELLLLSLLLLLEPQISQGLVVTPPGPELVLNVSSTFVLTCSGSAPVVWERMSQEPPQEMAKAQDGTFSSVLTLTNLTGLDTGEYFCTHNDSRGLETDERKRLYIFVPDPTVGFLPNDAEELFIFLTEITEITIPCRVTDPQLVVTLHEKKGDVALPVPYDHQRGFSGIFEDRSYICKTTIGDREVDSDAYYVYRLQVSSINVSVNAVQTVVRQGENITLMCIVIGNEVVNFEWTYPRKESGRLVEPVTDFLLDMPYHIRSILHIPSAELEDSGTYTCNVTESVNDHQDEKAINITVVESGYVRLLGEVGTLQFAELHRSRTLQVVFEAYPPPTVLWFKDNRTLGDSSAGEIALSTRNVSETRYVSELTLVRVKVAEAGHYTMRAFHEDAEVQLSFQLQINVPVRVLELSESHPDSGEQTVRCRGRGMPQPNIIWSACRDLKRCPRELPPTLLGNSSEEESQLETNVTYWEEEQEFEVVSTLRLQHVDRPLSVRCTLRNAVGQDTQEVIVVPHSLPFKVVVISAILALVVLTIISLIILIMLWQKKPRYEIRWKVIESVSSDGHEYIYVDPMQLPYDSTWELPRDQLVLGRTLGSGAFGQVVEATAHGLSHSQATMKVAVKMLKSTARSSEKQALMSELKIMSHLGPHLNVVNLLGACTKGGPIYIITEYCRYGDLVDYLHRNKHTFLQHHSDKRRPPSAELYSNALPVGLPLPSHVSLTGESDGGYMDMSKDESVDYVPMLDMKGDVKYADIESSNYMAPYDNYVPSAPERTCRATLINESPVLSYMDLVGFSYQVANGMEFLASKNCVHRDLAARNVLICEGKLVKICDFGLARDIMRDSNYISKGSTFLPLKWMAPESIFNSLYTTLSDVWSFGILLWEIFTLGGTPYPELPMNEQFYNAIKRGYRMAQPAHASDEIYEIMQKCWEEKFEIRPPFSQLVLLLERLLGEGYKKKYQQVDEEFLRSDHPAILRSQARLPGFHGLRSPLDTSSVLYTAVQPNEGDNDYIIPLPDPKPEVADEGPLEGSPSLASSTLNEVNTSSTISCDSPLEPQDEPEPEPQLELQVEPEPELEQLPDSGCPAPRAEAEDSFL
MYLK (human), sequence (Q15746 whole entry, looked up): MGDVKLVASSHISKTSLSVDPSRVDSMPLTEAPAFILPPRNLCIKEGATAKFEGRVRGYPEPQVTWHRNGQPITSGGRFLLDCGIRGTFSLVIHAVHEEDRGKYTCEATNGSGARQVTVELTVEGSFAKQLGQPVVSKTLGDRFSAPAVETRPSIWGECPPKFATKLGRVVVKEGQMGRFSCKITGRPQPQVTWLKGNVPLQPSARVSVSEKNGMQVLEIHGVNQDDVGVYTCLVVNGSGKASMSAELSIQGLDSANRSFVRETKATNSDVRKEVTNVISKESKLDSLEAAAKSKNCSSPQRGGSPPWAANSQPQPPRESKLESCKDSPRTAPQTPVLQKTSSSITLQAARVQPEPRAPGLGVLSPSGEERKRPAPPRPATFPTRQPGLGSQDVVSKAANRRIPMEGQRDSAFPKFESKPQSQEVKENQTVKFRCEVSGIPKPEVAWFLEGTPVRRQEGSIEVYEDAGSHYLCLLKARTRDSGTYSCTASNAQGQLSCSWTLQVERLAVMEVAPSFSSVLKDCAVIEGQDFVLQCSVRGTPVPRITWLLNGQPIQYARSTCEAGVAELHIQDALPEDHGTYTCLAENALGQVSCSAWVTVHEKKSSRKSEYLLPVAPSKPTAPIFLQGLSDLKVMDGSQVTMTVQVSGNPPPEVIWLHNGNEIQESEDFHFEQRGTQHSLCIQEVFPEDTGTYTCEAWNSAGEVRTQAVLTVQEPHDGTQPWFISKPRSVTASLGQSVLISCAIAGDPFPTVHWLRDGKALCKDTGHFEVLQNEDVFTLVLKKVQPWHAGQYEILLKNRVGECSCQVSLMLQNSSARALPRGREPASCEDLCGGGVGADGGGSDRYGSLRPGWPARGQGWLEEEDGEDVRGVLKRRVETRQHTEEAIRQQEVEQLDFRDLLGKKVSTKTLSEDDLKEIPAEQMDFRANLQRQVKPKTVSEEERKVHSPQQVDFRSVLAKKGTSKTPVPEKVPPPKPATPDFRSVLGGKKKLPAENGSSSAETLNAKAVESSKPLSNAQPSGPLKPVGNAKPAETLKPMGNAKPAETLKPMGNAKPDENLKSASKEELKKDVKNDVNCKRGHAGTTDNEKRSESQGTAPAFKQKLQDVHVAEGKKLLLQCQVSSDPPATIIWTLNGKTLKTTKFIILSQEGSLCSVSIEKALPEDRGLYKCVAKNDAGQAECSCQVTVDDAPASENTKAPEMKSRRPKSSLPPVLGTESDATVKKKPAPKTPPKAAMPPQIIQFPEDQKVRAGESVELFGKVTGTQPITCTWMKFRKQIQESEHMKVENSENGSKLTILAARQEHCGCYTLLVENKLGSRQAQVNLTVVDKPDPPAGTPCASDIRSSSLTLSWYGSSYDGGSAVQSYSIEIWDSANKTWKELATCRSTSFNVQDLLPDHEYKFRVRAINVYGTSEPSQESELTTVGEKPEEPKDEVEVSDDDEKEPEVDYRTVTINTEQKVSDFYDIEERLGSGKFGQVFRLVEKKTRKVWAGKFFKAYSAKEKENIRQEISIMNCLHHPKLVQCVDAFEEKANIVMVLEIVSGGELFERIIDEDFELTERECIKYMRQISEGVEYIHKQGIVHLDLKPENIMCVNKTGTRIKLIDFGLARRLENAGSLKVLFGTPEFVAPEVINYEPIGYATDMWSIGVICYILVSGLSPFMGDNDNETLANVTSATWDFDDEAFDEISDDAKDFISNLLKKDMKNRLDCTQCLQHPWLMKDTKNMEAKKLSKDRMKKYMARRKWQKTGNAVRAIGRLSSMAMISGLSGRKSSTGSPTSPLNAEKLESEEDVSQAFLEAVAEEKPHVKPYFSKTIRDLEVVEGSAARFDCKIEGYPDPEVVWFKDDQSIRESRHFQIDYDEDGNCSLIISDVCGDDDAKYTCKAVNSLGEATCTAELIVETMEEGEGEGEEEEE
MAPK15 (human), sequence (Q8TD08 whole entry, looked up): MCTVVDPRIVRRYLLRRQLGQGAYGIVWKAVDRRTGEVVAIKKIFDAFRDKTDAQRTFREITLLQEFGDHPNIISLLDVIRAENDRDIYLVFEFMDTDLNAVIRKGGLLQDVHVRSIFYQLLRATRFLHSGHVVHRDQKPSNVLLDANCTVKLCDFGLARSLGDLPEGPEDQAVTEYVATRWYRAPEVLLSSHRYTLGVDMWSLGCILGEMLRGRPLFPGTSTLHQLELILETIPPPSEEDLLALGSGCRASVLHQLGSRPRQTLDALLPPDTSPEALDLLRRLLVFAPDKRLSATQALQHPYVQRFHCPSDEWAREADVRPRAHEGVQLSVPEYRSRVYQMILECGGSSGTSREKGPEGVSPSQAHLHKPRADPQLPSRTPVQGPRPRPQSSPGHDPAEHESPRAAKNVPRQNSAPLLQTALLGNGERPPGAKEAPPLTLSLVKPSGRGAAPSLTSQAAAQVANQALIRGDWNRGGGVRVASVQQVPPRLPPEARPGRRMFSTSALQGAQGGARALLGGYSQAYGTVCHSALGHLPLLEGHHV
ACVR1 (human), sequence (Q04771 whole entry, looked up): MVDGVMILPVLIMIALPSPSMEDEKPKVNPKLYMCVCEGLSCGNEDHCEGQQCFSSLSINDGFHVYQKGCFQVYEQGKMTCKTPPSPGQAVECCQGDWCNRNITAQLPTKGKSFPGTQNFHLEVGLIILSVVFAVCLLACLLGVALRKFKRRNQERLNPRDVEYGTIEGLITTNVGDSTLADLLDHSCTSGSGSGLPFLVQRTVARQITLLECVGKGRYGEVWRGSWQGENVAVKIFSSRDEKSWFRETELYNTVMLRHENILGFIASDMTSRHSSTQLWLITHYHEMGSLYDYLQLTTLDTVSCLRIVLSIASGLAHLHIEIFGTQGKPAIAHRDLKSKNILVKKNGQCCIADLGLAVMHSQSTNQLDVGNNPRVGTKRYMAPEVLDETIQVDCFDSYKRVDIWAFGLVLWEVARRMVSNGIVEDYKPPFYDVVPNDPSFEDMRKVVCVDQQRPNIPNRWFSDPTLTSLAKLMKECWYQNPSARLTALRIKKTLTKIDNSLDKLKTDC
STK16 (human), sequence (O75716 whole entry, looked up): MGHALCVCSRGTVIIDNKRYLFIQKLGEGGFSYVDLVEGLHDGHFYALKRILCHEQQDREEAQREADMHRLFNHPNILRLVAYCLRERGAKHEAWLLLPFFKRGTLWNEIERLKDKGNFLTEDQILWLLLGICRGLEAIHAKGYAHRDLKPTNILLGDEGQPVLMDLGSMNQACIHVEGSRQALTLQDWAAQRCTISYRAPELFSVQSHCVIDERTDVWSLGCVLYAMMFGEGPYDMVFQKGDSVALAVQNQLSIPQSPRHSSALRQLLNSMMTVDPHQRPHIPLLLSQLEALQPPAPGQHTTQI
CLK3 (human), sequence (P49761 whole entry, looked up): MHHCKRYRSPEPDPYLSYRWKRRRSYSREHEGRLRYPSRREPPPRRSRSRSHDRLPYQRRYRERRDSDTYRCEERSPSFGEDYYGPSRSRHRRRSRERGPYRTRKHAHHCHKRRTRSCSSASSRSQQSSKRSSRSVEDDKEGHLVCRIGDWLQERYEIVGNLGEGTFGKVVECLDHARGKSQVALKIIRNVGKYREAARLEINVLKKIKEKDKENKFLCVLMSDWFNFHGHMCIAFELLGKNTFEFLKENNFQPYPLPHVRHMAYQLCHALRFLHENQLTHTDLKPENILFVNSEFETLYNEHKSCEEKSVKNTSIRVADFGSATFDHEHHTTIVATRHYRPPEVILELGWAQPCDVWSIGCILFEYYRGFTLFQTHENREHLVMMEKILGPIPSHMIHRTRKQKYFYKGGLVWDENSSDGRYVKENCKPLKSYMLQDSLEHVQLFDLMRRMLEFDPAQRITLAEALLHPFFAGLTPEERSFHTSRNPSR

kinase still bound, per cent of control [1]: 74%
kinase still bound, per cent of control [2]: 5.8%
kinase still bound, per cent of control [3]: 90%
kinase still bound, per cent of control [4]: 66%
kinase still bound, per cent of control [5]: 93%
kinase still bound, per cent of control [6]: 100%
kinase still bound, per cent of control [7]: 43%
kinase still bound, per cent of control [8]: 82%
kinase still bound, per cent of control [9]: 89%
kinase still bound, per cent of control [10]: 92%
kinase still bound, per cent of control [11]: 9.9%
kinase still bound, per cent of control [12]: 72%
kinase still bound, per cent of control [13]: 12%
kinase still bound, per cent of control [14]: 17%
kinase still bound, per cent of control [15]: 94%
kinase still bound, per cent of control [16]: 71%
kinase still bound, per cent of control [17]: 24%
kinase still bound, per cent of control [19]: 57%
kinase still bound, per cent of control [20]: 55%
kinase still bound, per cent of control [21]: 1.2%
kinase still bound, per cent of control [22]: 51%
kinase still bound, per cent of control [23]: 13%
kinase still bound, per cent of control [24]: 46%
kinase still bound, per cent of control [25]: 78%
kinase still bound, per cent of control [26]: 42%
kinase still bound, per cent of control [27]: 81%
kinase still bound, per cent of control [28]: 97%
kinase still bound, per cent of control [29]: 57%
kinase still bound, per cent of control [30]: 86%
kinase still bound, per cent of control [31]: 46%
kinase still bound, per cent of control [32]: 83%
kinase still bound, per cent of control [33]: 15%
kinase still bound, per cent of control [34]: 13%
kinase still bound, per cent of control [35]: 77%
kinase still bound, per cent of control [36]: 75%
kinase still bound, per cent of control [37]: 13%
kinase still bound, per cent of control [38]: 82%
kinase still bound, per cent of control [39]: 93%
kinase still bound, per cent of control [40]: 100%
kinase still bound, per cent of control [41]: 1.2%
kinase still bound, per cent of control [42]: 100%
Compound: COc1cc(N2CCN(C)CC2)ccc1Nc1ncc2c(n1)N(C)c1sccc1C(=O)N2C
kinase still bound, per cent of control [18]: 87%

kinase still bound, per cent of control [1]: 20%
kinase still bound, per cent of control [2]: 66%
kinase still bound, per cent of control [3]: 100%
kinase still bound, per cent of control [4]: 62%
kinase still bound, per cent of control [5]: 100%
kinase still bound, per cent of control [6]: 92%
kinase still bound, per cent of control [7]: 1%
kinase still bound, per cent of control [8]: 96%
kinase still bound, per cent of control [9]: 100%
kinase still bound, per cent of control [10]: 100%
kinase still bound, per cent of control [11]: 2.1%
kinase still bound, per cent of control [12]: 48%
kinase still bound, per cent of control [13]: 64%
kinase still bound, per cent of control [14]: 100%
kinase still bound, per cent of control [15]: 37%
kinase still bound, per cent of control [16]: 55%
kinase still bound, per cent of control [17]: 5.8%
kinase still bound, per cent of control [19]: 40%
kinase still bound, per cent of control [20]: 82%
kinase still bound, per cent of control [21]: 51%
kinase still bound, per cent of control [22]: 13%
kinase still bound, per cent of control [23]: 31%
kinase still bound, per cent of control [24]: 71%
kinase still bound, per cent of control [25]: 25%
kinase still bound, per cent of control [26]: 90%
kinase still bound, per cent of control [27]: 100%
kinase still bound, per cent of control [28]: 94%
kinase still bound, per cent of control [29]: 92%
kinase still bound, per cent of control [30]: 73%
kinase still bound, per cent of control [31]: 67%
kinase still bound, per cent of control [32]: 84%
kinase still bound, per cent of control [33]: 80%
kinase still bound, per cent of control [34]: 2.1%
kinase still bound, per cent of control [35]: 100%
kinase still bound, per cent of control [36]: 75%
kinase still bound, per cent of control [37]: 86%
kinase still bound, per cent of control [38]: 76%
kinase still bound, per cent of control [39]: 75%
kinase still bound, per cent of control [40]: 52%
kinase still bound, per cent of control [41]: 75%
kinase still bound, per cent of control [42]: 100%
Compound: COc1cc(N2CCN(C)CC2)ccc1Nc1ncc2c(n1)Nc1ccccc1NC2=O
kinase still bound, per cent of control [18]: 69%

Source: the kinase profiling compilation of Christmann-Franck et al. (2016)
